Marks after values point to notes of the source that are not given here.

From patent EP0302407A2, “Metallic complexes of streptogramin-B, their preparation and their use in animal food” (HOECHST AKTIENGESELLSCHAFT, priority 1987, dated 1989) come the findings set out here.

Format in all cases: in vivo
Series [1] relates to männlichen Mastküken. As to the kind of experiment: Feeding trial with broiler chicks, Beispiel I (6 weeks). Particulars: for Mortalität: 60480 min. An excerpt: Ein Fütterungsversuch mit Etamycin-Cu-Komplex gemäß Herstellungsbeispiel 2 wurde mit 120 männlichen Mastküken in 3 Gruppen zu je 40 Küken durchgeführt, die in beheizten Batterien (5 Küken bei 8 Wiederholungen) gehalten wurden. Folgende Präparate und Dosierungen wurden eingesetzt:
Das Grundfutter hatte eine handelsübliche Zusammensetzung mit 13,0 MJ/kg = 3100 kcal/kg und einem Rohproteingehalt von 22 %, bei einem normgerechten Aminosäuren-, Vitamin-, Mineralstoff- und Spurenelementgehalt.
(§1) Der Versuch lief über 6 Wochen. Futter und Trinkwasser wurden nach Belieben angeboten. Die Tiere wurden wöchentlich einzeln gewogen, die Lebendmasse(LM)-Zunahmen errechnet, die Futteraufnahme bestimmt und aus Futteraufnahme : LM-Zunahme der Futteraufwand errechnet. Die Mortalität wurde erfaßt und aus all diesen Parametern die Produktionszahl (PZ) errechnet. [formula]

The test system of series [2] is männlichen Mastküken (Lohmann). Kind of series: Feeding trial with broiler chicks, Beispiel II (42 days).
From the text: as §1
In einem Mastküken-Versuch über 42 Tage wurde mit 144 männlichen Mastküken (Lohmann) 3 x 48 Küken (8 Wiederholungen x 6 Tiere) der Einfluß von Etamycin-Cu-Komplex gemäß Beispiel I in Dosierungen von 5 und 10 ppm gegenüber Negativ-Kontrollen ohne Zusatz geprüft. Haltung und Fütterung waren die gleichen wie in Beispiel I.

The test system of series [3] is Mastküken. As to the kind of experiment: Feeding trial with broiler chicks, Beispiel III (6 weeks). Particulars: 10 mg/kg Futter (ppm).
From the text: as §1
In einem weiteren Mastküken-Versuch wurde der Einfluß von Etamycin-Zn-Komplex gemäß Beispiel 4 in einer Dosierung von 10 ppm im Vergleich zu einer Negativ-Kontrolle wie im Beispiel I geprüft. Zum Einsatz kamen 36 Mastküken (6 Wiederholungen x 6 Tiere), bei einer Versuchszeit von 6 Wochen. Haltungs- und Fütterungsbedingungen waren die gleichen wie im Beispiel I.

Series [4] concerns männlichen Mastküken. As to the kind of experiment: Feeding trial with broiler chicks, Beispiel IV (5 weeks). The settings on record: for Mortalität: 50400 min.
From the text: as §1
Mit 96 männlichen Mastküken wurde in 3 Gruppen zu je 32 Mastküken (4 Wiederholungen x 8 Tiere) über 5 Wochen der Einfluß des Etamycin-Mn-Komplexes gemäß Beispiel 10 in Dosierungen von 5 und 10 ppm im Vergleich zu einer Negativ-Kontrolle (ohne Zusatz) geprüft. Die Haltungs- und Fütterungsbedingungen sowie die Auswertung waren die gleichen wie in Beispiel I.

The mark [5] stands for this setting: 5 mg/kg Futter (ppm), Futteraufnahme : LM-Zunahme.
[6] abbreviates: 5 mg/kg Futter (ppm), control = 100.
[7] abbreviates: 20 mg/kg Futter (ppm), control = 100.
Where [8] appears, read: 10 mg/kg Futter (ppm), Futteraufnahme : LM-Zunahme.
[9] abbreviates: 10 mg/kg Futter (ppm), control = 100.

Turning to “Etamycin-Kupfer-(II)-komplex (Et₂ x Cu(II)) [Etamycin-Cu-Komplex]”, the Futteraufnahme is recorded as 2561 g in series [1] (5 mg/kg Futter (ppm)); 101,2 rel.% in series [1] (setting [6]); 2644 g in series [1] (20 mg/kg Futter (ppm)); 104,5 rel.% in series [1] (setting [7]); 3260 g in series [2] (5 mg/kg Futter (ppm)); 106,3 rel.% in series [2] (setting [6]). For the same substance, the Futteraufnahme in series [2] (10 mg/kg Futter (ppm)) is on record as 3099 g; in series [2] (setting [9]) it was 101,0 rel.%. For the same substance, the LM-Zunahme in series [1] (5 mg/kg Futter (ppm)) is given as 1439 * g; in series [1] (setting [6]), 109,0 rel.%; in series [1] (20 mg/kg Futter (ppm)), 1442 * g; in series [1] (setting [7]), 109.2 rel.%; in series [2] (5 mg/kg Futter (ppm)), 1699 * g; in series [2] (setting [6]), 109,0 rel.%. For the same substance, the LM-Zunahme in series [2] (10 mg/kg Futter (ppm)) was 1673 * g; in series [2] (setting [9]), 107,3 rel.%. Moreover, the Produktionszahl is recorded as 154 in series [1] (5 mg/kg Futter (ppm)), 173 in series [1] (20 mg/kg Futter (ppm)), 207 in series [2] (5 mg/kg Futter (ppm)) and 202 in series [2] (10 mg/kg Futter (ppm)). Further, the Mortalität in series [1] (5 mg/kg Futter (ppm)) was 20%; in series [1] (20 mg/kg Futter (ppm)), 7,5%; in series [2] (5 mg/kg Futter (ppm)) it was 2,1%; in series [2] (10 mg/kg Futter (ppm)) it was 6,3%. The Futteraufwand in series [1] (setting [5]) is 1,78; in series [1] (setting [6]) it was 92,7 rel. %; in series [1] (20 mg/kg Futter (ppm), Futteraufnahme : LM-Zunahme), 1,83; in series [1] (setting [7]), 95,3 rel. %; in series [2] (setting [5]) it was 1,92; in series [2] (setting [6]), 97,5 rel. %. Further, the values for the Futteraufwand in series [2] (setting [8]) and in series [2] (setting [9]) were 1,85 and 93,9 rel. %, respectively.
Consider “Etamycin-Zn(II)-komplex (Et₂ x Zn(II)) [Etamycin-Zn-Komplex]”, for which, in series [3], the Futteraufnahme turned out to be 3041 g, the LM-Zunahme is listed as 1748 * g and the Produktionszahl is reported as 228. Moreover, the Mortalität in series [3] (60480 min) was 5,6%. Moreover, the Futteraufwand in series [3] (Futteraufnahme : LM-Zunahme) is recorded as 1,74. In addition, in series [3] (control = 100), the Futteraufnahme was 102,5 rel.%, the Futteraufwand is on record as 93,5 rel. % and the LM-Zunahme was 109,4 rel.%.
Take “Etamycin-Mangan (II)-komplex Et₂ x Mn(II) [Etamycin-Mn-Komplex]”: the Futteraufnahme in series [4] (5 mg/kg Futter (ppm)) is reported as 2334 g; in series [4] (setting [6]), 100 rel.%; in series [4] (10 mg/kg Futter (ppm)), 2413 g; in series [4] (setting [9]), 103,4 rel.%. For the same substance, the LM-Zunahme in series [4] (5 mg/kg Futter (ppm)) is on record as 1394 * g; in series [4] (setting [6]), 106,4 rel.%; in series [4] (10 mg/kg Futter (ppm)) it was 1419 * g; in series [4] (setting [9]) it was 108,3 rel.%. Besides, the Produktionszahl in series [4] (5 mg/kg Futter (ppm)) and in series [4] (10 mg/kg Futter (ppm)) was 222 throughout. Besides, the Mortalität in series [4] (5 mg/kg Futter (ppm)) and in series [4] (10 mg/kg Futter (ppm)) was 0% each time. The Futteraufwand is 1,67 in series [4] (setting [5]), 93,8 rel. % in series [4] (setting [6]), 1,70 in series [4] (setting [8]) and 95,5 rel. % in series [4] (setting [9]).
